Data set [1] can be described thus: Acidity determined spectrometrically. The format is ADME.
Data set [2] is described as follows: Partition coefficient (logP). In kind it is physicochemical. The note with it: octanol/water.
Data set [3] in a line: Acidity of compound was determined. The format is ADME.

Experimental findings from ChEMBL document CHEMBL1121741, “Acidic epinephrine analogues derived from 1H, 3H-2,1,3-benzothiadiazole 2,2-dioxide and from trifluoromethanesulfonanilide. A new synthesis of 1H,3H-2,1,3-benzothiadiazole 2,2-dioxide” (J Med Chem, 1981) are described below.

With `NCC(O)c1ccc2c(c1)NS(=O)(=O)N2` (stereo unspecified), the pKa in data set [1] stood at 4.68. In data set [1], `CNCC(O)c1ccc2c(c1)NS(=O)(=O)N2` (stereo unspecified) gave a pKa of 4.67. In data set [2], `O=S(=O)(CF)Nc1ccccc1` registered a logP of 1.35. Also, the pKa in data set [3] turned out to be 7.53. In the case of `CS(=O)(=O)Nc1ccccc1`, the logP in data set [2] stood at 0.95. The compound also came in with a pKa in data set [3] of 8.85. In turn, `CC(C)NCC(O)c1ccc2c(c1)NS(=O)(=O)N2` (stereo unspecified) displayed a pKa in data set [1] of 4.68.

As for `O=S1(=O)Nc2ccccc2N1`, in data set [2], the logP worked out at 1.12. The compound also returned a pKa in data set [3] of 5.26. As for `CC(C)NCC(O)c1ccc(NS(=O)(=O)C(F)(F)F)cc1` (stereo unspecified), in data set [1], the pKa was found to be 3.65.

In data set [1], `CC(C)(C)NCC(O)c1ccc2c(c1)NS(=O)(=O)N2` (stereo unspecified) displayed a pKa of 4.7. In turn, `CC(C)NCC(O)c1cccc(NS(=O)(=O)C(F)(F)F)c1` (stereo unspecified) had a pKa in data set [1] of 3.63.

In data set [2], `O=S(=O)(Nc1ccccc1)C(F)(F)F` came in with a logP of 3.03. The compound further registered a pKa in data set [3] of 4.45.

For the compound `Oc1cccc(O)c1` [RESORCINOL], the logP in data set [2] was determined as 0.85. For the same compound, the pKa in data set [3] came to 9.5.

One may read the pKa as the negative logarithm of the acid dissociation constant. As a reminder, the logP is the decadic logarithm of the partition coefficient of the neutral form, usually between octanol and water. Lower therefore signals lower lipophilicity.
